Reference: US10780106B2, “Method for treating NASH accompanied by fibrosis using Cl-IB-MECA” (CAN-FITE BIOPHARMA LTD., priority 2015, dated 2020)
“Also recorded” adds a separate entry of the source.

What was measured:
NASH mice [1] = experiment: Example 1: STZ plus high fat diet NASH mouse model, effect of CF102 on liver weight, ALT, TG and liver histology; assay type: in vivo, Male C57BL/6 mice
Description: Male C57BL/6 mice were used as a murine experimental model.
The A3AR agonist, 2-Chloro-N^6-(3-iodobenzyl)-adenosine-5′-N-methyluronamide (Cl-IB-MECA, referred to herein by the abbreviated name CF102), was synthesized for Can-Fite BioPharma by Albany Molecular Research Inc, Albany. N.Y., USA. CF102 was used in liquid form, dissolved in dimethyl sulfoxide (DMSO), used as the vehicle. Dissolved CF102 and the DMSO vehicle were administered at the same volume.
Male C57BL/6 mice were injected with a single subcutaneous injection of 200 μg streptozotocin (STZ) two days after birth and feeding with high fat diet after 4 weeks of age. […] Treatment was given between 6 weeks of age and 9 weeks of age.
After Study termination, liver weight was measured and Liver-to-Body weight ratio was calculated.
Plasma ALT and liver triglyceride were measured and histological analyses were made on the liver sections for the following: Hematoxylin & Eosin staining for estimation of NAFLD Activity score and Sirius red staining for estimation of fibrosis area.

NASH mice [2] = experiment: Example 2: STZ plus high fat diet mouse model, effect of CF102 on NAS score; assay type: in vivo; details: CF102 200 μg/kg orally thrice daily, 6 to 9 weeks of age; compared to the vehicle
Description: Male mice were injected with 200 μg/animal STZ two days after birth. From 4 weeks of age, the mice were fed with high fat diet. At 6 weeks of age, the mice were randomized into vehicle and CF102 200 μg/kg treatment groups. Treatment was given orally, thrice daily. Termination was performed after 9 weeks. Hematoxylin & Eosin staining was used for estimation of NAFLD Activity.

hepatocyte = details: as disclosed in WO09/050707; cited from earlier work
[3] = Hematoxylin & Eosin liver histology, compared to the Vehicle
[4] = NASH mice, CF102 orally thrice daily from 6 to 9 weeks of age, vs vehicle

CNC(=O)[C@H]1O[C@@H](n2cnc3c(NCc4cccc(I)c4)nc(Cl)nc32)[C@H](O)[C@@H]1O [CF102, 2-Chloro-N^6-(3-iodobenzyl)-adenosine-5′-N-methyluronamide]
NAFLD activity score (NASH mice [1]; CF102 200 μg/kg, FIG. 4): decrease in NAFLD activity score
ballooning (liver sections) (NASH mice [1]; [3]): significant decrease
lobular inflammation (liver sections) (NASH mice [1]; [3]): significant decrease
steatosis (liver sections) (NASH mice [1]; [3]): significant decrease
liver-to-body weight ratio (NASH mice [1]; NASH livers in mice, CF102 orally thrice daily from 6 to 9 weeks of age, vs vehicle, p=0.05): reduced liver-to-body weight ratio; also recorded: reduction of liver-to-body weight ratio
Triglycerides levels in the liver (NASH mice [1]; [4]): decrease
plasma ALT level (NASH mice [1]; [4]): decreased ALT levels; also recorded: decrease in plasma ALT level
inflammation NAS (NAFLD Activity Score) score (NASH mice [2]): reduced the inflammation NAS; also recorded: reducing the inflammation NAS score
hepatocyte proliferation (hepatocyte): induce hepatocyte proliferation
